Data taken from patent US10316131B2, “Hyperbranched polymer modified with isocyanate linker and mix of short and long chain alkyl polyether” (priority 2014, dated 2019).

What was measured:
[1] = tested on: Puccinia Recondata/Tritici; test: Greenhouse test of pesticidal activity on infected wheat, suspension concentrates SC1 and SC2; type: in vivo, Puccinia Recondata/Tritici on wheat variety Monopol
Protocol: An aqueous suspension concentrate (“SC1”) was prepared as in Application Example 1. The pesticidal activity was tested in greenhouse tests on wheat variety Monopol, which was infected with the fungi Puccinia Recondata/Tritici. The plants were treated with SC1 three days after the inoculation at a use rate of […] (200 l water/ha). The use rate of the polymers of the invention was kept constant at 250 g per ha.
The above greenhouse tests were also made with a suspension concenctrate “SC2” of the triazole fungicide 2-[4-(4-chlorophenoxy)-2-(trifluoromethyl)phenyl]-1-(1H-1,2,4-triazol-1-yl)propan-2-ol (“triazole fungicide”) (100 g/ha) instead of fluxapyroxad.

[2] = Solubilization measurements with a highthroughput screening robot; type: physicochemical
Protocol: Solubilization measurements were carried out with a highthroughput screening robot. […] After the addition of stirring bars and 24 hours incubation time the samples were filtrated through polypropylene filters in order to separate dissolved active and its solid form. The amount of solubilized active was determined by UV/VIS spectroscopy.

[3] = 10 mg solid active in 3 wt % polymer solution in CIPAC water D, 24 hours, listed as of the active = no polymer

Cn1cc(C(=O)Nc2ccccc2-c2cc(F)c(F)c(F)c2)c(C(F)F)n1 [fluxapyroxad]
% infected leaf area, use rate of active 33% ([1]; fluxapyroxad SC1, use rate 8.3 pesticide per ha, polymer 250 g per ha, treated three days after inoculation, 7 days after inoculation): 80% | % infected leaf area, use rate of active 100% ([1]; fluxapyroxad SC1, use rate 25 pesticide per ha, polymer 250 g per ha, treated three days after inoculation, 7 days after inoculation): 79% | Solubility of fluxapyroxad [2, 3]: 10 pmm

NC(=O)N1c2ccccc2C=Cc2ccccc21 [carbamazepine]
Solubility of carbamazepine [2, 3]: 181 pmm

CC(O)(Cn1cncn1)c1ccc(Oc2ccc(Cl)cc2)cc1C(F)(F)F (centres unmarked) [triazole fungicide, 2-[4-(4-chlorophenoxy)-2-(trifluoromethyl)phenyl]-1-(1H-1,2,4-triazol-1-yl)propan-2-ol]
% infected leaf area, use rate of active 100% ([1]; triazole fungicide SC2 (100 g/ha) instead of fluxapyroxad): 83% | % infected leaf area, use rate of active 33% ([1]; triazole fungicide SC2 instead of fluxapyroxad, 33% use rate): 91% | Solubility of the triazole fungicide [2, 3]: 15 pmm

N#Cc1nn(-c2c(Cl)cc(C(F)(F)F)cc2Cl)c(N)c1[S+]([O-])C(F)(F)F (centres unmarked) [fipronil]
Solubility of fipronil [2]: 12 pmm
